Values of other authors, collected in US20260191871A1, “USE OF ANTIVIRAL AGENTS, COMPOSITION OF MATTER, COMBINATION PREPARATIONS/AGENTS TO TREAT CHRONIC DISEASES ASSOCIATED WITH EPSTEIN-BARR VIRUS AND OTHER HUMAN HERPES VIRUSES” (EPIPHANY BIOSCIENCES, priority 2022, published 2026).

Experiments:
[1] = tested on: human herpesvirus-6 (HHV-6)
[2] = tested on: human varicella zoster virus (VZV)
zoster = conditions: suspension at 250, 500 and 750 mg twice daily for 7 days, zoster patients, acyclovir as control
[3] = human, multiple dosing, total daily doses of up to 6.0 g
[4] = compared with the other polymorphic forms (O'Neill et al. '456)

For `Nc1nc2c(ncn2C[C@H](CO)CCO)c(=O)[nH]1` [Formula H2G], the “activity against human herpesvirus-6 (HHV-6)” value [1] is listed as “potent activity”, the “activity against human varicella zoster virus (VZV)” value [2] is listed as “potent activity” and the “activity against HSV-1” value (HSV-1) is listed as “potent activity”. For the same compound, the “activity against Epstein-Barr virus (EBV)” value (Epstein-Barr virus (EBV)) was “potent activity” and the “activity against HSV-2” value (HSV-2) was “potent activity”.

In the case of `CCCCCCCCCCCCCCCCCC(=O)OC[C@H](CCOC(=O)[C@@H](N)C(C)C)Cn1cnc2c(=O)nc(N)[nH]c21` [valomaciclovir stearate, [(2R)-4-[(2S)-2-amino-3-methylbutanoyl]oxy-2-[(2-amino-6-oxo-3H-purin-9-yl)methyl]butyl]octadecanoate], the zoster lesion healing (zoster) is given as “proof-of-concept for zoster lesion healing”, the safety and tolerability [3] is given as “safe and well tolerated” and the “replication of EBV” value (EBV) is given as “suppresses replication of EBV”. For the same compound, the “impact on CMV” value (CMV) was “does not impact CMV”.

For `CCCCCCCCCCCCCCCCCC(=O)OC[C@H](CCOC(=O)[C@@H](N)C(C)C)Cn1cnc2c(=O)[nH]c(N)nc21` [Polymorph A], the “thermodynamic stability among polymorphs of valomaciclovir stearate” value [4] is listed as “thermodynamically the most stable polymorph”.
